Data set [1] relates to HAdV type 5. In words: quantitative real-time PCR (qPCR) anti-adenoviral dose-response assay. The format is cell-based, human adenovirus type 5 (strain F2853-5b) in A549 cells. The following applies: for EC50: Human mastadenovirus C, A549 host cells, qPCR of viral genomes after 24 h, duplicates; for anti-adenoviral activity (in words): dose-response up to 0.4 mM, qPCR 24 h post infection (Figure 8B). How it is done: In order to confirm the antiviral activity observed during the screening campaign (Figure 3) and determine the EC50 values of the analogs, we conducted a dose-response experiment by a standardized quantitative real-time PCR (qPCR) assay (Figure 5). In this assay, the number of adenoviral genomes is assessed in relationship to the number of cells and the replication of HAdV type 5 on A549 host cells was assessed.
Figure 5 Dose-response study of the identified compounds on HAdV type 5. Each concentration point was run in duplicate and qPCR-analysis performed after 24 h. The amount of HAdV type 5 genomes in each treated sample was compared to infected but non-treated samples to obtain the inhibition of the percentage of control (y-axis). See the experimental section for details.
The quantitative Real Time PCR (qPCR) assay was performed as previously described. Briefly, A549 cells in 24 well plates (Nunc™ #142475) were infected with HAdV type 5 (1 pg per cell) and incubated with compound for 24 h. Thereafter, cellular and viral DNA was prepared using a QIAamp DNA blood minikit (Qiagen, Solna, Sweden) and quantitative real-time PCR was used to detect newly synthesized viral DNA and the inhibitory effect of the compounds. The principle of quantitative real-time PCR and the design of primers and probes for analysis of various HAdV types representing different adenovirus species have previously been described. Quantitative real-time PCR was carried out using a primer pair and a FAM-labeled probe detecting and amplifying the viral hexon gene. The amount of detected viral hexon DNA was normalized to the cellular RNaseP gene. Real-time PCR was performed in an ABI Prism 7900HT sequence detector and analyzed with Sequence Detector software version 2.4 (Applied Biosystems®, Life Technologies, Grand Island, NY, USA).
Determination of the EC50 values was performed with non-linear regression analysis with a variable slope using GraphPad Prism software version 6.0c (GraphPad Software, San Diego, CA, USA).
A general note: In qPCR the cycle at which signal appears reflects the starting amount.

The nature of data set [2]: XTT based cytotoxicity test on A549 cells. In kind it is cell-based, human. The following applies: human, A549 cells, 24 h, XTT, normalized against DMSO controls, two independent experiments; for viability at 24 h, 400 µM: read-out: % Viable Cells at 400 μM; for viability at 24 h, 800 µM: read-out: % Viable Cells at 800 μM. The source says: (§1) Consideration of cellular cytotoxicity is essential when identifying antiviral compounds. Compounds that negatively interfere with the proliferation or viability of host cells will be recorded as false positives when assayed for antiviral activity. […] The XTT test measures the ability of mitochondrial enzymes to reduce 2,3-bis-(2-methoxy-4-nitro-5-sulfophenyl)-2H-tetrazolium-5-carboxanilide to a colored formazan dye that is spectrophotometrically quantified. […] Strikingly, butenolide 4 with the non-functionalized side-chain affected the viability dramatically. At both 400 and 800 μM of 4 the percentage of viable cells was close to zero, whereas for butenolide 1–3 the cells were as viable as the DMSO control at the concentrations tested. […] To further elucidate this difference and determine whether the cytotoxicity was cell type specific, we performed a dose-response experiment and investigated the cytotoxicity on human diploid fibroblasts derived from foreskin (FSU). FSU cells are isolated from the dermis of juvenile foreskin and, unlike A549 cells, are not derived from carcinoma, but primary cells with a limited expected number of cell divisions. […] However, the butenolide 4 with a non-functionalized side-chain reduced the viability of A549 cells and FSU cells to almost zero at 400 and 800 μM. […] The reason for the steep concentration dependence on cytotoxicity for the butenolide 4 containing a non-functionalized side-chain is presently unknown, and the large difference in cytotoxic potential between 4 and the other analogs is noteworthy when considering the minor structural differences in their side-chains.
(§2) The potential cytotoxic effect of the compounds was determined with XTT-based Cell Proliferation Kit II (Roche Applied Science, Penzberg, Germany). This method is a colorimetric assay based on the cleavage of the tetrazolium salt XTT to a soluble formazan salt by viable cells. Approximately, 13,000 A549 cells were seeded per well in 96-well plates on the day before addition of compounds. The next day, the growth medium was removed from the wells and replaced with 100 μL of phenol-red free DMEM with 2% FBS containing compound. In parallel, an amount of DMSO corresponding to the same amount of test compound was added to the cells and the plate was incubated at 37 °C for 20 h. Subsequently, 50 μL of XTT solution was added per well and the plate was incubated at 37 °C for 4 h and finally the intensity of the formazan dye was measured by spectrophotometry at a wavelength of 490 nm.

The subject of data set [3] is A549 cells. The data set can be described thus: XTT based cytotoxicity test on A549 cells. In kind it is cell-based, human. The following applies: for concentration above which the viability of the cells is significantly reduced: A549 cells, XTT (Figure 8C).
Text: as §1, §2

The subject of data set [4] is FSU cells (human diploid fibroblasts derived from foreskin). In words: XTT based cytotoxicity dose-response on FSU cells. In kind it is cell-based. The following applies: 24 h.
Text: as §1
Figure 6 The cytotoxicity profile of butenolide ketone 3 and butenolide 4 with a non-functionalized side chain, on two cell lines, A549 cells and FSU cells, analyzed after 24 h. See experimental section for details.
as §2
A general note: Formazan colour is commonly taken as a measure of viable cells.

The test system of data set [5] is HAdV type 5. The data set can be described thus: time-of-addition assay (qPCR). The format is cell-based, human adenovirus type 5 in A549 cells. How it is done:
Figure 7 Characterization of the antiviral activity of the butenolide ketone 3. The antiviral activity of the compounds was obtained by comparing the amount of HAdV type 5 genomes per cell to non-treated but infected control samples (y-axis). (A) Time-of-addition assay where 200 μM of butenolide ketone 3 was added at different time points in comparison to the addition of HAdV 5 at time 0 h. Samples were analyzed 24 h after the infection (+24 h) with qPCR; (B) Binding assay with ^35S-labelled HAdV 5 virions, with 200 μM compound 3 pretreated A549 cells for 1.5 h prior time-of-infection (TOI) and no pretreatment; (C) Virucidal assay where HAdV 5 virions were pretreated with 200 μM of butenolide ketone 3 prior addition to A549 cells and analyzed after 24 h. […]
The quantitative Real Time PCR (qPCR) assay was performed as previously described. […] Thereafter, cellular and viral DNA was prepared using a QIAamp DNA blood minikit (Qiagen, Solna, Sweden) and quantitative real-time PCR was used to detect newly synthesized viral DNA and the inhibitory effect of the compounds. The principle of quantitative real-time PCR and the design of primers and probes for analysis of various HAdV types representing different adenovirus species have previously been described. Quantitative real-time PCR was carried out using a primer pair and a FAM-labeled probe detecting and amplifying the viral hexon gene. […]

The subject of data set [6] is HAdV 5 virions binding to A549 cells. The data set can be described thus: binding assay with 35S-labelled HAdV 5 virions. In kind it is cell-based, human adenovirus type 5 in A549 cells. The following applies: A549 cells pre-treated with 200 μM for 1.5 h, compared to the control. How it is done:
(§3) Figure 7 Characterization of the antiviral activity of the butenolide ketone 3. The antiviral activity of the compounds was obtained by comparing the amount of HAdV type 5 genomes per cell to non-treated but infected control samples (y-axis). (A) Time-of-addition assay where 200 μM of butenolide ketone 3 was added at different time points in comparison to the addition of HAdV 5 at time 0 h. Samples were analyzed 24 h after the infection (+24 h) with qPCR; (B) Binding assay with ^35S-labelled HAdV 5 virions, with 200 μM compound 3 pretreated A549 cells for 1.5 h prior time-of-infection (TOI) and no pretreatment; (C) Virucidal assay where HAdV 5 virions were pretreated with 200 μM of butenolide ketone 3 prior addition to A549 cells and analyzed after 24 h.
This was primarily to investigate in which stage of the viral infectious cycle that the butenolide ketone 3 inhibited and consequently to reduce the number of possible drug-targets for further mode-of-action analysis. […] Simultaneous addition of 200 μM of 3 and virus (0 h) reduced the viral replication to below 20%, which is consistent with Figure 5. […]
^35S labelling of HAdV 5 was performed as previously described as well as the binding experiment. […] The cell-associated radioactivity was measured using a liquid scintillation counter (Wallac 1409, Perkin-Elmer, Waltham, MA, USA).

In data set [7] the test system is HAdV 5 virions. In words: virucidal assay. The format is cell-based, human adenovirus type 5 in A549 cells. The following applies: virions incubated with 200 μM for 2 h before infection, qPCR after 24 h. How it is done: as §3
This was primarily to investigate in which stage of the viral infectious cycle that the butenolide ketone 3 inhibited and consequently to reduce the number of possible drug-targets for further mode-of-action analysis. […]
The HAdV type 5 stock was diluted in DMEM (Sigma-Aldrich, St. Louis, MO, USA) with 2% FBS (Gibco®, Life Technologies, Grand Island, NY, USA) to the appropriate concentration to be added per well. […] In parallel, an identical mixture with no incubation time was added to wells as a control and the antiviral activity was analyzed 24 h post infection with qPCR assay.

“Also recorded” adds a separate entry of the source.

A word on the EC50: it is the concentration at which the effect is half-maximal. Read a high EC50 as a need for much substance.

Compound `C[C@H](O)[C@H](C)CCCCC[C@H]1C=CC(=O)O1` [Compound 1a] had an EC50 in data set [1] of 113 µM. In addition, in data set [2], the viability at 24 h, 400 µM was found to be 98 ± 6% and the viability at 24 h, 800 µM came to 96 ± 4%.

For `CCC(C)(O)CCCCC[C@H]1C=CC(=O)O1` (some centres unmarked) [Compound 2], the EC50 in data set [1] amounted to 183 µM. In addition, in data set [2], the viability at 24 h, 400 µM is 106 ± 7% and the viability at 24 h, 800 µM came out at 100 ± 3%.

Consider `CC(=O)[C@H](C)CCCCC[C@H]1C=CC(=O)O1` [Compound 3], for which it took 91 µM to reach a half-maximal effect in data set [1] (EC50). Also, in data set [2], the viability at 24 h, 400 µM stood at 102 ± 5% and the viability at 24 h, 800 µM stood at 101 ± 3%. The “cytotoxicity (in words)” value in data set [3] (XTT, concentrations tested) was “no cytotoxicity”. The “cytotoxicity at the highest concentration (in words)” value in data set [4] (2 mM, XTT (Figure 6)) was “no prominent cytotoxicity; also recorded: did not affect the viability of FSU cells to a great extent”. In addition, in data set [5] (200 μM added simultaneously with virus (0 h), qPCR 24 h after infection), the “viral replication, % of non-treated infected control” value was “below 20%”. In data set [5] (cells pre-incubated with 200 μM for four hours prior to the addition of virus, qPCR at 24 h), the “effect on viral infection (in words)” value was “completely blocked the viral infection”. Moreover, the “binding of the virus to the cells (in words)” value in data set [6] is on record as “did not reduce the binding of the virus to the cells”. For the same compound, the “virucidal activity (in words)” value in data set [7] is “did not differ between the pretreated and non-pretreated virions”.

In data set [1], `CCC(C)CCCCCC1C=CC(=O)O1` (centres unmarked) [Compound 4] yielded a 50% effective concentration (EC50) of 90 µM. In addition, the viability at 24 h, 400 µM in data set [2] came to 3 ± 1%. Besides, in data set [2], the viability at 24 h, 800 µM was found to be 3 ± 1%. For the same compound, the “viability of A549 cells (in words)” value in data set [3] (100 μM, 24 h, XTT (Figure 6)) is recorded as “in line with untreated DMSO control”; in data set [3] (400 and 800 μM, 24 h, XTT), “close to zero”. Besides, the “cytotoxicity on A549 cells (in words)” value in data set [3] (200 μM, 24 h, XTT (Figure 6)) is recorded as “toxicity was strongly decreased”. Moreover, in data set [3] (24 h), the “concentration above which the viability of the cells is significantly reduced” value was “above 0.2 mM”. In addition, in data set [3] (cytotoxic concentration compared with the EC50 on HAdV type 5), the “concentration showing cytotoxicity relative to EC50” value was “approximately three times its EC50 value”. Further, the “viability of FSU cells (in words)” value in data set [4] (100 μM, XTT (Figure 6)) is “in line with untreated DMSO control”; in data set [4] (400 and 800 μM, XTT), “almost zero”. Also, the “cytotoxicity on FSU cells (in words)” value in data set [4] (200 μM, XTT (Figure 6)) is “toxicity was strongly decreased”.

Take `CC(=O)[C@H](C)CCCCC[C@H]1CCC(=O)O1` [Compound 5]: the “anti-adenoviral activity (in words)” value in data set [1] was “eliminated the antiviral activity”.

Regarding `CC[C@H](C)CCCCC[C@H]1CCC(=O)O1` [Compound 6], the “anti-adenoviral activity (in words)” value in data set [1] was “eliminated the antiviral activity”. The “concentration above which the viability of the cells is significantly reduced” value in data set [3] (24 h) was “above 0.4 mM”.

The values above are taken from article PMC3944516, “Isolation and Characterization of Anti-Adenoviral Secondary Metabolites from Marine Actinobacteria” (Marine Drugs, 2014).
